Measured values published in the NIST ThermoML archive (doi:10.1016/j.jct.2010.02.015).
Values joined by “and” are separate entries in the source; they are usually repeats but may differ in a detail not shown here. Identical values can stand only once.

Settings: Gas, Buoyancy - hydrostatic balance with magnetic suspension - two sinkers

[He] [helium]
Settings | mass density
323.15 K, 4247.2 kPa | 6.2127 kg/m3
323.15 K, 4247.3 kPa | 6.2128 kg/m3 and 6.2127 kg/m3
323.15 K, 4851.3 kPa | 7.0783 kg/m3 and 7.0787 kg/m3 and 7.0785 kg/m3
323.15 K, 4851.4 kPa | 7.0788 kg/m3
323.15 K, 7550.9 kPa | 10.893 kg/m3
323.15 K, 7551 kPa | 10.8932 kg/m3 and 10.8928 kg/m3 and 10.8929 kg/m3
323.15 K, 7816.5 kPa | 11.2639 kg/m3
323.15 K, 7816.6 kPa | 11.264 kg/m3 and 11.2637 kg/m3
323.15 K, 11516 kPa | 16.3444 kg/m3 and 16.3445 kg/m3
323.15 K, 11561 kPa | 16.4063 kg/m3 and 16.4048 kg/m3
323.15 K, 15406 kPa | 21.5262 kg/m3 and 21.5263 kg/m3 and 21.5265 kg/m3
323.15 K, 15457 kPa | 21.5934 kg/m3 and 21.5932 kg/m3
323.15 K, 15458 kPa | 21.5942 kg/m3
323.15 K, 18569 kPa | 25.6255 kg/m3 and 25.6259 kg/m3
323.15 K, 18570 kPa | 25.6261 kg/m3 and 25.6263 kg/m3
323.15 K, 19211 kPa | 26.4456 kg/m3
323.15 K, 19212 kPa | 26.4466 kg/m3 and 26.446 kg/m3
323.15 K, 24300 kPa | 32.8067 kg/m3
323.15 K, 24301 kPa | 32.8072 kg/m3 and 32.807 kg/m3 and 32.8069 kg/m3
323.15 K, 25287 kPa | 34.0129 kg/m3 and 34.0124 kg/m3
323.15 K, 25288 kPa | 34.0134 kg/m3
323.15 K, 25289 kPa | 34.0147 kg/m3
323.15 K, 30738 kPa | 40.5213 kg/m3
323.15 K, 30739 kPa | 40.522 kg/m3
323.15 K, 30740 kPa | 40.5237 kg/m3 and 40.5227 kg/m3
323.15 K, 32137 kPa | 42.1508 kg/m3
323.15 K, 32138 kPa | 42.1518 kg/m3 and 42.1514 kg/m3
323.15 K, 32139 kPa | 42.1524 kg/m3
323.15 K, 37733 kPa | 48.5152 kg/m3
323.15 K, 37734 kPa | 48.5163 kg/m3
323.15 K, 37735 kPa | 48.5178 kg/m3
323.15 K, 37736 kPa | 48.5195 kg/m3
323.15 K, 37959 kPa | 48.7675 kg/m3
323.15 K, 37960 kPa | 48.7683 kg/m3 and 48.7679 kg/m3
323.15 K, 37961 kPa | 48.7698 kg/m3
350 K, 4685.1 kPa | 6.3268 kg/m3 and 6.3265 kg/m3
350 K, 4685.2 kPa | 6.3269 kg/m3 and 6.3267 kg/m3
350 K, 7452.5 kPa | 9.9569 kg/m3 and 9.9566 kg/m3 and 9.9568 kg/m3
350 K, 11158 kPa | 14.7003 kg/m3 and 14.7004 kg/m3 and 14.7008 kg/m3
350 K, 15078 kPa | 19.5787 kg/m3 and 19.579 kg/m3 and 19.5788 kg/m3
350 K, 15079 kPa | 19.5795 kg/m3
350 K, 18991 kPa | 24.3127 kg/m3 and 24.3128 kg/m3
350 K, 18992 kPa | 24.313 kg/m3 and 24.3135 kg/m3
350 K, 24052 kPa | 30.2468 kg/m3 [middle of 4 runs]
350 K, 30655 kPa | 37.6887 kg/m3
350 K, 30656 kPa | 37.6893 kg/m3 and 37.6888 kg/m3
350 K, 30658 kPa | 37.6913 kg/m3
350 K, 37804 kPa | 45.3924 kg/m3
350 K, 37805 kPa | 45.3931 kg/m3
350 K, 37806 kPa | 45.3936 kg/m3 and 45.3946 kg/m3
375 K, 4669.4 kPa | 5.8931 kg/m3 and 5.893 kg/m3 and 5.8932 kg/m3
375 K, 7673.3 kPa | 9.581 kg/m3 and 9.5809 kg/m3
375 K, 7673.4 kPa | 9.5815 kg/m3 and 9.5814 kg/m3
375 K, 7673.5 kPa | 9.5816 kg/m3
375 K, 11339 kPa | 13.9783 kg/m3 and 13.9779 kg/m3 and 13.9781 kg/m3
375 K, 14992 kPa | 18.2509 kg/m3 and 18.2507 kg/m3
375 K, 14993 kPa | 18.2512 kg/m3 and 18.2509 kg/m3
375 K, 19144 kPa | 22.9816 kg/m3 and 22.9811 kg/m3 and 22.981 kg/m3
375 K, 19145 kPa | 22.9817 kg/m3 and 22.9816 kg/m3
375 K, 24590 kPa | 28.996 kg/m3
375 K, 24591 kPa | 28.9965 kg/m3 and 28.9964 kg/m3 and 28.9966 kg/m3
375 K, 30460 kPa | 35.251 kg/m3
375 K, 30461 kPa | 35.2518 kg/m3 and 35.2512 kg/m3
375 K, 30462 kPa | 35.2524 kg/m3
375 K, 30463 kPa | 35.2534 kg/m3
375 K, 37969 kPa | 42.9318 kg/m3
375 K, 37970 kPa | 42.9322 kg/m3
375 K, 37971 kPa | 42.9332 kg/m3
375 K, 37972 kPa | 42.9339 kg/m3
375 K, 37973 kPa | 42.9352 kg/m3
400 K, 5058.3 kPa | 5.9844 kg/m3 [middle of 4 runs]
400 K, 7571.3 kPa | 8.8831 kg/m3 and 8.8829 kg/m3
400 K, 7571.4 kPa | 8.883 kg/m3 and 8.8833 kg/m3
400 K, 11460 kPa | 13.2766 kg/m3 and 13.2769 kg/m3 and 13.2767 kg/m3
400 K, 14777 kPa | 16.9377 kg/m3 [middle of 4 runs]
400 K, 19142 kPa | 21.6423 kg/m3 and 21.6418 kg/m3 and 21.6416 kg/m3
400 K, 19143 kPa | 21.6425 kg/m3
400 K, 23882 kPa | 26.6105 kg/m3
400 K, 23883 kPa | 26.6111 kg/m3
400 K, 23884 kPa | 26.6117 kg/m3 and 26.6114 kg/m3
400 K, 29989 kPa | 32.8083 kg/m3
400 K, 29990 kPa | 32.8093 kg/m3 and 32.8086 kg/m3
400 K, 29991 kPa | 32.8101 kg/m3
400 K, 37939 kPa | 40.5581 kg/m3
400 K, 37940 kPa | 40.5595 kg/m3
400 K, 37941 kPa | 40.56 kg/m3
400 K, 37942 kPa | 40.5606 kg/m3
425 K, 7875.4 kPa | 8.7027 kg/m3
425 K, 7875.6 kPa | 8.703 kg/m3
425 K, 7875.7 kPa | 8.703 kg/m3
425 K, 7875.8 kPa | 8.7031 kg/m3
425 K, 11516 kPa | 12.586 kg/m3 and 12.5859 kg/m3
425 K, 11517 kPa | 12.5867 kg/m3 and 12.5863 kg/m3
425 K, 15540 kPa | 16.7803 kg/m3
425 K, 15541 kPa | 16.7806 kg/m3 and 16.7809 kg/m3
425 K, 19133 kPa | 20.4427 kg/m3 and 20.4422 kg/m3
425 K, 19134 kPa | 20.4431 kg/m3
425 K, 25118 kPa | 26.3791 kg/m3
425 K, 25119 kPa | 26.3797 kg/m3
425 K, 25120 kPa | 26.3801 kg/m3 and 26.3808 kg/m3
425 K, 31604 kPa | 32.5927 kg/m3
425 K, 31605 kPa | 32.5929 kg/m3
425 K, 31606 kPa | 32.5939 kg/m3
425 K, 31607 kPa | 32.5953 kg/m3
425 K, 37906 kPa | 38.4268 kg/m3
425 K, 37908 kPa | 38.4278 kg/m3
425 K, 37909 kPa | 38.4293 kg/m3
425 K, 37913 kPa | 38.4326 kg/m3
450 K, 4775.3 kPa | 5.0371 kg/m3
450 K, 4775.4 kPa | 5.0373 kg/m3 and 5.0374 kg/m3
450 K, 7655.9 kPa | 8.0083 kg/m3
450 K, 7656 kPa | 8.0084 kg/m3 and 8.0085 kg/m3
450 K, 11907 kPa | 12.3041 kg/m3 [middle of 4 runs]
450 K, 15358 kPa | 15.7171 kg/m3 [middle of 4 runs]
450 K, 18965 kPa | 19.2155 kg/m3
450 K, 18966 kPa | 19.2158 kg/m3 and 19.2164 kg/m3 and 19.2154 kg/m3
450 K, 24940 kPa | 24.8633 kg/m3 and 24.8624 kg/m3
450 K, 24941 kPa | 24.8636 kg/m3
450 K, 24943 kPa | 24.8658 kg/m3
450 K, 31394 kPa | 30.7672 kg/m3
450 K, 31395 kPa | 30.7683 kg/m3
450 K, 31396 kPa | 30.7693 kg/m3
450 K, 31398 kPa | 30.7705 kg/m3
450 K, 37608 kPa | 36.2728 kg/m3
450 K, 37610 kPa | 36.274 kg/m3
450 K, 37611 kPa | 36.2757 kg/m3
450 K, 37613 kPa | 36.2772 kg/m3
475 K, 4812.4 kPa | 4.813 kg/m3 and 4.8133 kg/m3 and 4.8131 kg/m3
475 K, 7937.7 kPa | 7.8707 kg/m3
475 K, 7937.9 kPa | 7.871 kg/m3
475 K, 7938 kPa | 7.8709 kg/m3
475 K, 11474 kPa | 11.2698 kg/m3 and 11.2694 kg/m3
475 K, 11475 kPa | 11.2697 kg/m3 and 11.2696 kg/m3
475 K, 15102 kPa | 14.6905 kg/m3 and 14.6903 kg/m3 and 14.69 kg/m3
475 K, 15103 kPa | 14.6908 kg/m3
475 K, 18995 kPa | 18.29 kg/m3 and 18.2901 kg/m3 and 18.2895 kg/m3
475 K, 18996 kPa | 18.2908 kg/m3
475 K, 25698 kPa | 24.3237 kg/m3 and 24.3233 kg/m3
475 K, 25699 kPa | 24.3246 kg/m3
475 K, 31116 kPa | 29.0563 kg/m3
475 K, 31118 kPa | 29.0576 kg/m3
475 K, 31119 kPa | 29.0583 kg/m3
475 K, 31122 kPa | 29.0604 kg/m3
475 K, 37990 kPa | 34.8852 kg/m3
475 K, 37992 kPa | 34.8873 kg/m3
475 K, 37994 kPa | 34.8888 kg/m3
475 K, 37996 kPa | 34.891 kg/m3
499.99 K, 37868 kPa | 33.2206 kg/m3
500 K, 4928 kPa | 4.6849 kg/m3 and 4.6846 kg/m3 and 4.685 kg/m3
500 K, 7887.1 kPa | 7.4404 kg/m3 and 7.4403 kg/m3
500 K, 7887.3 kPa | 7.4406 kg/m3
500 K, 11580 kPa | 10.8213 kg/m3 and 10.8221 kg/m3 and 10.8212 kg/m3
500 K, 11581 kPa | 10.8215 kg/m3
500 K, 15421 kPa | 14.2721 kg/m3 and 14.2719 kg/m3
500 K, 15422 kPa | 14.2732 kg/m3 and 14.2727 kg/m3
500 K, 19581 kPa | 17.9371 kg/m3 and 17.9369 kg/m3
500 K, 19583 kPa | 17.9388 kg/m3
500 K, 25162 kPa | 22.7413 kg/m3
500 K, 25163 kPa | 22.7419 kg/m3
500 K, 25166 kPa | 22.7445 kg/m3
500 K, 30651 kPa | 27.3437 kg/m3
500 K, 30652 kPa | 27.3446 kg/m3
500 K, 30653 kPa | 27.3454 kg/m3
500 K, 30654 kPa | 27.3459 kg/m3
500 K, 37864 kPa | 33.2185 kg/m3
500 K, 37865 kPa | 33.2203 kg/m3
500 K, 37870 kPa | 33.2239 kg/m3
